Experimental data reported in patent US10544154B2, “Opioid receptor antagonist prodrugs” (Nirsum Laboratories, Inc., priority 2017, dated 2020).

Columns and labels:
[1] = Plasma stability, human plasma (HPLC-MS); format: in vitro ADME; conditions: 2 μM, 37° C.
Description: (§1) Plasma stability determination of the test compounds in rat, dog, cynomolgus monkey and human plasma is performed using HPLC-MS. For rat, incubations are carried out in 96-well polypropylene plates in 5 aliquots of 70 μL each (one for each time point). […] Five time points are analyzed (0, 15, 120, 480 and 1440 min). […] All incubations are performed in duplicates. The samples are analyzed by HPLC-MS. The percentage of parent compound remaining after incubation in plasma is determined.

[2] = Plasma stability, rat plasma (HPLC-MS); format: in vitro ADME; conditions: 10 μM, 37° C.
Description: (§2) Plasma stability determination of the test compounds in rat, dog, cynomolgus monkey and human plasma is performed using HPLC-MS. For rat, incubations are carried out in 96-well polypropylene plates in 5 aliquots of 70 μL each (one for each time point). […] Five time points are analyzed (0, 15, 120, 480 and 1440 min). For dog, monkey and human, test compounds (2 μM, final solvent concentration 1%) were also incubated at 37° C. and analyzed at five time points (0, 10, 30, 60 and 120 min). All incubations are performed in duplicates. The samples are analyzed by HPLC-MS. The percentage of parent compound remaining after incubation in plasma is determined.

[3] = Plasma stability, dog plasma (HPLC-MS); format: in vitro ADME; conditions: 2 μM, 37° C.
Description: as §2

[4] = Plasma stability, cynomolgus monkey plasma (HPLC-MS); format: in vitro ADME; conditions: 2 μM, 37° C.
Description: as §1

[5] = Clinical observations for dogs in pharmacokinetic studies; format: in vivo, Beagle dogs; conditions: right leg test article
Description: Weight monitoring was done every week.
The dose formulation (concentration—400 mg base equivalents/ml in sesame oil+1% benzyl alcohol, unless otherwise specified) was administered via deep intramuscularly (unless otherwise specified). The injection vehicle was also dosed via deep intramuscular route (unless otherwise specified) on contralateral site of each animal at study initiation. The animals were sedated with Propofol at 6 mg/kg via IV administration. Following sedation hair was carefully removed from around the injection site and the area gently cleaned. Care will be taken to avoid irritating skin during shaving and cleaning the injection site. Then dogs will be dosed with deep IM administration. At least 2.5 cm depth from the surface into the central aspect of the quadriceps or biceps femoris muscle, by angling the needle toward the femur. If the needle hits the femur, simply draws back slightly and then inject. The dose volume will be determined by the animals' body weight collected on the morning of dosing day. For repeated administration, the injection sites may be rotated to minimize tissue injury.

[6] = Polymorph screening of solid state drug substances; format: physicochemical; conditions: for Dry method and appearance: after stirring at 50 °C for 72 hours; for XRPD results (Dried): dried solid
[7] = Solubility determination in oil (cottonseed oil, sesame oil), HPLC
Description: A known amount of test substance (˜40 mg) was weighed into the vial, 100 μL of oil was added and heated to 60° C. and then system was slurried to reach equilibrium. […] Then the clear solution was placed at room temperature (25° C.) for 24 h to confirm whether there was solid precipitation. Extra oil was added into the vial once compound precipitated out and then the system was re-equilibrated at 1000 rpm at room temperature (25° C.). Final concentration was determined by HPLC method as described below in Table 6a and 6b.

[8] = Heating Temp. 60 °C, Obs. Temp. 40 °C
[9] = Heating Temp. 60 °C, Obs. Temp. 25 °C

Compound | % remaining at time point in minutes, 0 min [2] | Dry method and appearance ([6]; Acetone) | XRPD results (Dried) ([6]; Acetone) | Dry method and appearance ([6]; EtOAc) | XRPD results (Dried) ([6]; EtOAc) | Dry method and appearance ([6]; Heptane) | XRPD results (Dried) ([6]; Heptane) | Dry method and appearance ([6]; Isopropanol) | XRPD results (Dried) ([6]; Isopropanol) | Dry method and appearance ([6]; MTBE) | XRPD results (Dried) ([6]; MTBE) | also measured
CCCCCCCCCCCC(=O)OCN1C(=O)CCc2ccc(OCCCCN3CCN(c4cccc(Cl)c4Cl)CC3)cc21 [Aripiprazole Lauroxil, reference compound] | 100% |  |  |  |  |  |  |  |  |  |  | % remaining at time point in minutes, 0 min [1]: 100%; % remaining at time point in minutes, 120 min ([1]; 120 min): 80%; % remaining at time point in minutes, 15 min [2]: 84%; % remaining at time point in minutes, 1440 min [2]: 46%; % remaining at time point in minutes, 0 min [3]: 100%; % remaining at time point in minutes, 0 min [4]: 100%
C=C1CC[C@@]2(O)C3Cc4ccc(OC(=O)CCCCCCC/C=C/CCCCCCCC)c5c4[C@@]2(CCN3CC2CC2)[C@H]1O5 [Compound 15, (4aS,7aS,12bS)-3-(cyclopropylmethyl)-4a-hydroxy-7-methylene-2,3,4,4a,5,6,7,7a-octahydro-1H-4,12-methanobenzofuro[3,2-e]isoquinolin-9-yl (E)-octadec-9-enoate] | 100% |  |  |  |  |  |  |  |  |  |  | Clinical observations, R-TA ([5]; 48 mg/kg, Day 35, dogs D1001, D1002, D1003): rashes subside on the leg; Clinical observations, R-TA ([5]; Day 7, dogs D1501, D1502, D1503, dose not given): Swelling 8 * 4 cm; % remaining at time point in minutes, 0 min [1]: 100%; % remaining at time point in minutes, 1440 min ([1]; 1440 min): 109.6%; % remaining at time point in minutes, 15 min [2]: 72%; % remaining at time point in minutes, 480 min [2]: 52%; % remaining at time point in minutes, 1440 min [2]: 35%; % remaining at time point in minutes, 0 min [3]: 100%; % remaining at time point in minutes, 0 min [4]: 100%
C=C1CC[C@@]2(O)C3Cc4ccc(OC(=O)OCCCCCCCCCCCCCCCC)c5c4[C@@]2(CCN3CC2CC2)[C@H]1O5 [Compound 19, (4aS,7aS,12bS)-3-(cyclopropylmethyl)-4a-hydroxy-7-methylene-2,3,4,4a,5,6,7,7a-octahydro-1H-4,12-methanobenzofuro[3,2-e]isoquinolin-9-yl hexadecyl carbonate] | 100% | Evaporation/white powder | Pattern A | Evaporation/white powder | Pattern A | Evaporation/white powder | Pattern A | Evaporation/white powder | Pattern A | Evaporation/white powder | Pattern A | 
CCCCCCCCCCCCCCCCOC(=O)Oc1ccc2c3c1O[C@H]1C(=O)CC[C@@]4(O)C(C2)N(CC2CC2)CC[C@]314 [Compound 21, (4aS,7aR,12bS)-3-(cyclopropylmethyl)-4a-hydroxy-7-oxo-2,3,4,4a,5,6,7,7a-octahydro-1H-4,12-methanobenzofuro[3,2-e]isoquinolin-9-yl hexadecyl carbonate] | 100% | Evaporation/white powder | Pattern A | Evaporation/white powder | Pattern A | Evaporation/white powder | Pattern A | Evaporation/white powder | Pattern A | Evaporation/white powder | Pattern A | Approximate Solubility in Excipient: Cottonseed oil [7, 8]: 101 to 134.8 mg/mL; Approximate Solubility in Excipient: Sesame oil [7, 8]: 101 to 134.5 mg/mL
CCCCCCCC/C=C/CCCCCCCC(=O)OCOc1ccc2c3c1O[C@H]1C(=O)CC[C@@]4(O)C(C2)N(CC2CC2)CC[C@]314 [Compound 26, (((4aS,7aR,12bS)-3-(cyclopropylmethyl)-4a-hydroxy-7-oxo-2,3,4,4a,5,6,7,7a-octahydro-1H-4,12-methanobenzofuro[3,2-e]isoquinolin-9-yl)oxy)methyl (E)-octadec-9-enoate] |  |  |  |  |  |  |  |  |  |  |  | Approximate Solubility in Excipient: Cottonseed oil [7, 9]: 204.3 to 239 mg/mL
C=C1CC[C@@]2(O)C3Cc4ccc(OC(=O)OCCCCCCCCCCCCCC)c5c4[C@@]2(CCN3CC2CC2)[C@H]1O5 [Compound 31, (4aS,7aS,12bS)-3-(cyclopropylmethyl)-4a-hydroxy-7-methylene-2,3,4,4a,5,6,7,7a-octahydro-1H-4,12-methanobenzofuro[3,2-e]isoquinolin-9-yl tetradecyl carbonate] | 100% | Evaporation/white powder | Pattern A | Evaporation/white powder | Pattern A | Evaporation/white powder | Pattern A | Evaporation/white powder | Pattern A | Evaporation/white powder | Pattern A | 
C=C1CC[C@@]2(O)C3Cc4ccc(OC(=O)CCCCCCC/C=C\C/C=C\CCCCC)c5c4[C@@]2(CCN3CC2CC2)[C@H]1O5 [Compound 37, (4aS,7aS,12bS)-3-(cyclopropylmethyl)-4a-hydroxy-7-methylene-2,3,4,4a,5,6,7,7a-octahydro-1H-4,12-methanobenzofuro[3,2-e]isoquinolin-9-yl (9Z,12Z)-octadeca-9,12-dienoate] |  |  |  |  |  |  |  |  |  |  |  | Approximate Solubility in Excipient: Cottonseed oil [7, 9]: 68.5 to 82 mg/mL
C=C1CC[C@@]2(O)C3Cc4ccc(OC(=O)CCC5CCCC5)c5c4[C@@]2(CCN3CC2CC2)[C@H]1O5 [Compound 39, (4aS,7aS,12bS)-3-(cyclopropylmethyl)-4a-hydroxy-7-methylene-2,3,4,4a,5,6,7,7a-octahydro-1H-4,12-methanobenzofuro[3,2-e]isoquinolin-9-yl 3-cyclopentylpropanoate] |  |  |  |  |  |  |  |  |  |  |  | Approximate Solubility in Excipient: Cottonseed oil ([7]; Heating Temp. 40 °C, Obs. Temp. 40 °C): 225 to 402.2 mg/mL
CCCCC/C=C\C/C=C\CCCCCCCC(=O)Oc1ccc2c3c1O[C@H]1C(=O)CC[C@@]4(O)C(C2)N(CC2CC2)CC[C@]314 [Compound 53, (4aS,7aR,12bS)-3-(cyclopropylmethyl)-4a-hydroxy-7-oxo-2,3,4,4a,5,6,7,7a-octahydro-1H-4,12-methanobenzofuro[3,2-e]isoquinolin-9-yl (9Z,12Z)-octadeca-9,12-di.enoate] | 100% |  |  |  |  |  |  |  |  |  |  | % remaining at time point in minutes, 480 min [2]: 7.3%; % remaining at time point in minutes, 1440 min [2]: 1.9%; Approximate Solubility in Excipient: Cottonseed oil [7, 9]: >408.5 mg/mL; Approximate Solubility in Excipient: Sesame oil [7, 9]: >401.9 mg/mL; Approximate Solubility in Excipient: Sesame oil [7, 8]: >406.3 mg/mL
CCCCCCCCCCCCCCCC(=O)Oc1ccc2c3c1O[C@H]1C(=O)CC[C@@]4(O)C(C2)N(CC2CC2)CC[C@]314 [Compound 55, (4aS,7aR,12bS)-3-(cyclopropylmethyl)-4a-hydroxy-7-oxo-2,3,4,4a,5,6,7,7a-octahydro-1H-4,12-methanobenzofuro[3,2-e]isoquinolin-9-yl palmitate] | 100% | Evaporation/white powder | Pattern B | Evaporation/white powder | Pattern B | Evaporation/white powder | Pattern B | Evaporation/white powder | Pattern B | Evaporation/white powder | Pattern B | 
CCCCCCCCCCCCCCCC(=O)OC1CCCn2c1nc(C)c(CCN1CCC(c3noc4cc(F)ccc34)CC1)c2=O (stereo not shown) [Paliperidone palmitate, reference compound] |  |  |  |  |  |  |  |  |  |  |  | % remaining at time point in minutes, 0 min [1]: 100%; % remaining at time point in minutes, 0 min [3]: 100%; % remaining at time point in minutes, 0 min [4]: 100%; % remaining at time point in minutes, 15 min ([4]; 15 min): 92%
